pIC50: −log10 of the molar value. Like-named read-outs stand apart in the source and are kept apart here.
How the values were obtained:
BxPC-3 cells = assay: IC50 concentration in BxPC-3 cells; assay type: cell-based
CFPAC cells = assay: IC50 concentration in CFPAC cells; assay type: cell-based
MiaPaCa-2 = assay: IC50 concentration by MTT colorimetric assay; assay type: cell-based, human
Experimental: (§1) MiaPaCa-2 and PANC-1 cells were trypsinized, washed, and incubated overnight in a humidified incubator. Each condition was performed in quadruplicate with 3×10^3 cells/well on a 96-well flat bottom plate. […] After drug treatment, 15 μL of the MTT dye solution was added to each well and incubated for 4 hours in a humidified incubator. The reaction was stopped by adding 100 μL of solubilization solution and the plate was incubated for an additional hour at room temperature. The wells were mixed and the absorbance was measured at 570 nm using a Synergy HTX Plate Reader. The % inhibition was calculated using the following equation: […]

PANC-1 = assay: IC50 concentration by MTT colorimetric assay; assay type: cell-based, human
Experimental: as §1

L3.6 = assay: IC50 concentration in L3.6 cells; assay type: cell-based
Pancreatic cancer (PC) = details: advanced or recurrent disease patients; cited from earlier work

Row | SMILES | pIC50 (BxPC-3 cells; Homo sapiens) | pIC50 (CFPAC cells; no unit printed at b33, read-out: IC50 dose) | pIC50 (CFPAC cells; read-out: IC50 concentration) | pIC50 (MiaPaCa-2; MiaPaCa-2, 72 hours treatment, MTT) | pIC50 (MiaPaCa-2; MiaPaCa-2, no unit printed at b274) | pIC50 (PANC-1; PANC-1, 72 hours treatment, MTT) | pIC50 (PANC-1; PANC-1, no unit printed at b274) | pIC50 (BxPC-3 cells) | pIC50 (L3.6) | pIC50 (MiaPaCa-2; Homo sapiens, MIA PaCa-2, MiaPaCa-2, 72 hours treatment, MTT) | median survival (Pancreatic cancer (PC))
1 | O=c1[nH]cc(F)c(=O)[nH]1 [5FU, 5 fluorouracil] | 4.84 | 5.30 | 5.30 |  |  |  |  |  |  |  | 
2 | N.N.[Cl][Pt][Cl] [CIS, cisplatin] |  |  | 5.00 | 4.73 | 4.73 | 4.85 | 4.85 | 5.16 | 4.80 |  | 
3 | Nc1ccn([C@@H]2O[C@H](CO)[C@@H](O)C2(F)F)c(=O)n1 [Gem, gemcitabine] |  |  |  |  |  |  |  |  | 4.92 | 4.81 | 6.7 months

Source: patent publication US20220175836A1, “PRIMING WITH TARGETED ACTIVATED T CELLS CAN ENHANCE CHEMO RESPONSIVENESS OF CANCER CELLS” (University of Virginia Patent Foundation, priority 2019, published 2022)
